# According to article PMC5702336, “Critical Role of Hepatic Cyp450s in the Testis-Specific Toxicity of (5R)-5-Hydroxytriptolide in C57BL/6 Mice” (Frontiers in Pharmacology, 2017):
# Legend:
# GC-2spd cells = test: Pol II protein level in spermatocyte-like cells (western blot); format: cell-based, mouse
# Procedure: (§1) Mouse GC-1spg (spermatogonia-like, ATCC number: CRL-2053), TM4 (Sertoli cell-like, ATCC number: CRL-1715), and GC-2spd (spermatocyte-like, ATCC number: CRL-2196) were purchased from ATCC (Manassas, VA). Cells were grown in a 5% CO2 atmosphere at 37°C. TM4 was cultured in DMEM supplemented with 5% horse serum, 2.5% fetal bovine serum and 1x antibiotic-antimyotic (Cat. NO. 15240062, Life technologies). GC-1spg and GC-2spd were cultured in DMEM supplemented with 10% fetal bovine serum (Cat. No. F2442, Sigma, USA) and 1x antibiotic-antimyotic (Cat.NO. 15240062, Life technologies).
# Cells were washed twice with ice-cold PBS (137 mM NaCl, 2.7 mM KCl, 10 mM Na2HPO4, and 1.8 mM KH2PO4, pH 7.4) and lysed in SDS sample buffer. Cell lysates, containing 20 μg of protein, were separated with SDS-PAGE (8%) and transferred to polyvinylidene difluoride membranes. After blocking in 5% non-fat milk in tris-buffered saline containing 0.1% Tween-20 (pH = 7.6), membranes were incubated with the appropriate primary antibodies at 4°C overnight. The primary antibodies γ-H2AX (Cat. No: 2577, Lot. No: 11, CST, USA) and Pol II (Cat. No: 05-623, Lot. No: 2397109, Millipore, USA) diluted 1:1000 in 5% bovine serum albumin (BSA, Cat. No. B2064-50G, Sigma, USA). […]
# γ-H2AX = γ-H2AX protein level and localization in testes and liver (western blot, immunofluorescence); format: in vivo, mouse
# Procedure: For toxicity experiments, mice (n = 3/group) were treated with LLDT-8 (0.5 or 1.0 mg/kg) consecutively administered by gavage for 15 days. Controls received saline. Mice were killed on the 15th-day post-administration and blood, liver, kidney, spleen, testes, and epididymis were collected. About 500 μL blood samples were collected from the heart. The main lobe of the liver, kidney, spleen, and epididymis was fixed in 10% neutral buffered formalin for histological examination, and the left testicle was fixed in modified Davidson's buffer (30% of a 37–40% solution of formaldehyde, 15% ethanol, 5% glacial acetic acid, and 50% distilled H2O) for 16 h followed by 10% neutral buffered formalin for 24 h (Latendresse et al., [2002]). Tissue sections were stained with hematoxylin and eosin (H&E). Remaining tissues were stored at −80°C for RNA and protein extraction.
# Cells were washed twice with ice-cold PBS (137 mM NaCl, 2.7 mM KCl, 10 mM Na2HPO4, and 1.8 mM KH2PO4, pH 7.4) and lysed in SDS sample buffer. Cell lysates, containing 20 μg of protein, were separated with SDS-PAGE (8%) and transferred to polyvinylidene difluoride membranes. After blocking in 5% non-fat milk in tris-buffered saline containing 0.1% Tween-20 (pH = 7.6), membranes were incubated with the appropriate primary antibodies at 4°C overnight. The primary antibodies γ-H2AX (Cat. No: 2577, Lot. No: 11, CST, USA) and Pol II (Cat. No: 05-623, Lot. No: 2397109, Millipore, USA) diluted 1:1000 in 5% bovine serum albumin (BSA, Cat. No. B2064-50G, Sigma, USA). Then the membranes were exposed to secondary antibodies (1:10,000, Cat. No.111-035-003, 115-035-003, Jackson ImmunoResearch Laboratories, USA) in 5% non-fat milk for 1 h at room temperature. Immunoreactive proteins were visualized using an enhanced chemiluminescent system (Cat. No. WBKLS0500, Millipore, Shanghai, China).
# For immunofluorescence analysis, the paraffin-embedded testis tissue samples were deparaffinized three times in exchanges wash of xylene. The testis sections were then gradually rehydrated using decreasing ethanol concentrations followed by PBS (pH = 7.4). After antigen retrieval in boiling 0.1M citrate buffer (pH = 6.0), the tissue sections were placed in humidity chambers and incubated with 4% BSA in PBS for 2 h at room temperature. Then 1:400 1% BSA diluted γ-H2AX primary antibody (Cat. No: ab26350, Lot. No: GR305763-3, Abcam, USA) and isotope control Mouse IgG1 (Cat. No: sc-3877, Lot. No: F1316, Santa Cruz, USA) was used. After incubated with primary antibody overnight at 4°C, testis tissue samples were washed three times with PBS. […]
# [1] = test system: GC-2spd, GC-1spg and TM4 cells; test: γ-H2AX protein level in three germ-cell lines (western blot); format: cell-based, mouse; conditions: 8h/16h treatment
# Procedure: as §1
# Cells were washed twice with ice-cold PBS (137 mM NaCl, 2.7 mM KCl, 10 mM Na2HPO4, and 1.8 mM KH2PO4, pH 7.4) and lysed in SDS sample buffer. Cell lysates, containing 20 μg of protein, were separated with SDS-PAGE (8%) and transferred to polyvinylidene difluoride membranes. […]
# The effects of LLDT-8 on the expression of γ-H2AX was investigated in spermatocyte-like GC-2spd cells (A), spermatogonia-like cells (B) and sertoli-like cells (C) after 8h/16h treatment of LLDT-8 at indicated concentration. The protein level was quantified with ImageQuant software. β-actin was used as a loading control. Significant difference was determined by one-way Anova, Bars represent the mean ± SD, n = 3, * p<0.05, ** p<0.01 vs control group (0 nM).
smiles,measurement,setting,value
"CC(C)[C@]12O[C@H]1[C@@H]1O[C@]13[C@]1(O[C@H]1C[C@@]1(O)C4=C(CC[C@]31C)C(=O)OC4)[C@@H]2O [LLDT-8, (5R)-5-hydroxytriptolide]",Pol II protein,GC-2spd cells,dose- and time-dependently reduced
same,XY bodies indicated by γ-H2AX foci in testes of WT mice,"γ-H2AX; 1.0 mg/kg LLDT-8, 15 days",decreased
same,γ-H2AX protein level (immunoblotting) in testes and liver,"γ-H2AX; 0.5–1 mg/kg, 15 days",reduction of γ-H2AX protein level in the testes but not in the liver
same,XY bodies indicated by γ-H2AX foci in testes of KO mice,"γ-H2AX; LLDT-8 treated, 15 days",disappeared
same,reduction of γ-H2AX in the testes of WT mice,"γ-H2AX; immunoblotting, not statistically significant",up to 40%
same,protein levels of γ-H2AX in three germ-cell lines,[1],did not decrease
